This is an account of results in US10040759B2, “Substituted azetidinyl compounds as GlyT1 inhibitors” (DART NEUROSCIENCE (CAYMAN) LTD., priority 2014, dated 2018).

This experiment addresses T1, GlyT1 (Homo sapiens, UniProt P48067).
T1 construct: expressed in transfected cells
T1 sequence (P48067 1-706): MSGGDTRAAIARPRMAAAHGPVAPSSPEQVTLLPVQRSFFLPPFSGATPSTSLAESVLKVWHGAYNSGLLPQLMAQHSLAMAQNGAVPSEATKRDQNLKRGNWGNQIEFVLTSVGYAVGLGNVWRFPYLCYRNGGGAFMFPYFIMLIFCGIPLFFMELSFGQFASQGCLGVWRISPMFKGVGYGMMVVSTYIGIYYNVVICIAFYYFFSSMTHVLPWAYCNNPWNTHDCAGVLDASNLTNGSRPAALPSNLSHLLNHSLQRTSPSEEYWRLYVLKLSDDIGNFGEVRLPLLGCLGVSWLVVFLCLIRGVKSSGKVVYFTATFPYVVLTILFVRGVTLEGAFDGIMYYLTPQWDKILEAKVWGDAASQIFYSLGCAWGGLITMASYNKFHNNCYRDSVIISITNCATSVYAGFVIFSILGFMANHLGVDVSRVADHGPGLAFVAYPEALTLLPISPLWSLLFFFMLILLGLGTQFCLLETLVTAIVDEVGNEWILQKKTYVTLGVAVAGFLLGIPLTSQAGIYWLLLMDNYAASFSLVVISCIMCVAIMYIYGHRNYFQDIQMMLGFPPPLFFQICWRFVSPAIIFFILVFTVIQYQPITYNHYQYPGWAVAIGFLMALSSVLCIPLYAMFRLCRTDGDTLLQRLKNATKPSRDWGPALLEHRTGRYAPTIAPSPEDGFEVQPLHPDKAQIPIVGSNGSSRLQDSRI
Briefly: Glycine Transporter 1 (GlyT1) uptake assay, scintillation proximity assay of [14C]-glycine uptake. The format is cell-based. Particulars: [14C]-glycine uptake; read-out: GlyT1 (pIC50) (converted). The method, then:
Glycine Transporter 1 (GlyT1) Uptake Assay
HEK293 cells stably expressing hGlyT1c were plated onto 96-well Cytostar plates at a density of 4.5×10^4 cells per well in 100 μL of growth media (DMEM containing 10% fetal bovine serum) and incubated overnight in a 37° C., 10% CO2 incubator. The following day, stock compounds in 10 mM DMSO were serially diluted in DMSO, and 2× compound solutions were prepared by diluting compound again (1:100) in HBSS. […] Plates were then read on a MicroBeta plate counter (Perkin Elmer). Dose-response data for tested compounds were analyzed and curves were fit using a four parameter logistic fit to determine IC50 values. […]
In general terms: Scintillation proximity formats need no separation of bound from free tracer.

A value given as a limit tells only on which side of the number the result lay.

For the molecule `COc1c(C#N)ccc(O[C@@H](C)C(F)(F)F)c1C(=O)N1CC(c2ccc(C#N)cc2Cl)C1` [Example 118, 3-{[3-(2-Chloro-4-cyanophenyl)azetidin-1-yl]carbonyl}-2-methoxy-4-{[(2S)-1,1,1-trifluoropropan-2-yl]oxy}benzonitrile], the IC50 is < 100 nM.

For `COc1c(C#N)ccc(C2(F)CCOCC2)c1C(=O)N1CC(c2ccc(C(F)(F)F)cc2)C1` [Example 208, 4-(4-Fluorooxan-4-yl)-2-methoxy-3-({3-[4-(trifluoromethyl)phenyl]azetidin-1-yl}carbonyl)benzonitrile], the IC50 is < 100 nM. Consider `COc1c(C#N)ccc(OC(C)C(F)(F)F)c1C(=O)N1CC(c2ccc(C(F)(F)F)cc2)C1` (stereo not drawn) [Example 98, 2-Methoxy-3-({3-[4-(trifluoromethyl)phenyl]azetidin-1-yl}carbonyl)-4-[(1,1,1-trifluoropropan-2-yl)oxy]benzonitrile], for which the IC50 was 100 to 1000 nM. `COc1c(C#N)ccc(O[C@@H](C)C(F)(F)F)c1C(=O)N1CC(c2cc(F)cc(F)c2)C1` [Example 53, 3-[3-(3,5-Difluorophenyl)azetidine-1-carbonyl]-2-methoxy-4-{[(2S)-1,1,1-trifluoropropan-2-yl]oxy}benzonitrile]: the IC50 is 100 to 1000 nM. For `COc1c(S(C)(=O)=O)ccc(OC(C)C)c1C(=O)N1CC(Oc2ccc(Cl)cc2)C1` [Example 219, 3-(4-Chlorophenoxy)-1-[3-methanesulfonyl-2-methoxy-6-(propan-2-yloxy)benzoyl]azetidine], the IC50 was 100 to 1000 nM. For the molecule `COc1c(S(C)(=O)=O)ccc(OCC(C)(C)C)c1C(=O)N1CC(Oc2cc(F)c(F)cc2F)C1` [Example 241, 1-[6-(2,2-Dimethylpropoxy)-3-methanesulfonyl-2-methoxybenzoyl]-3-(2,4,5-trifluorophenoxy)azetidine], the IC50 is 100 to 1000 nM. Consider `COc1c(C#N)ccc(O[C@H](C)C(F)(F)F)c1C(=O)N1CC(c2ccc(C(F)F)cn2)C1` [Example 137, 3-{3-[5-(Difluoromethyl)pyridin-2-yl]azetidine-1-carbonyl}-2-methoxy-4-{[(2R)-1,1,1-trifluoropropan-2-yl]oxy}benzonitrile], for which the IC50 is < 100 nM. For `COc1c(S(C)(=O)=O)ccc(O[C@@H](C)C(F)(F)F)c1C(=O)N1CC(c2cc(F)c(F)cc2F)C1` [Example 154, 1-(3-Methanesulfonyl-2-methoxy-6-{[(2S)-1,1,1-trifluoropropan-2-yl]oxy}benzoyl)-3-(2,4,5-trifluorophenyl)azetidine], the IC50 is < 100 nM.

Regarding `COc1c(S(C)(=O)=O)ccc(O[C@@H](C)C(F)(F)F)c1C(=O)N1CC(c2ccc(C(F)(F)F)cc2Cl)C1` [Example 146, 3-[2-Chloro-4-(trifluoromethyl)phenyl]-1-(3-methanesulfonyl-2-methoxy-6-{[(2S)-1,1,1-trifluoropropan-2-yl]oxy}benzoyl)azetidine], the IC50 is < 100 nM. Regarding `COc1c(C#N)ccc(C2(F)CCCC2)c1C(=O)N1CC(c2ccc(C(F)(F)F)cc2)C1` [Example 197, 4-(1-Fluorocyclopentyl)-2-methoxy-3-{3-[4-(trifluoromethyl)phenyl]azetidine-1-carbonyl}benzonitrile], the IC50 was < 100 nM. As to `COc1c(S(C)(=O)=O)ccc(OCC(C)(C)C)c1C(=O)N1CC(c2ccc(C(F)(F)F)cc2)C1` [Example 238, 1-[6-(2,2-Dimethylpropoxy)-3-methanesulfonyl-2-methoxybenzoyl]-3-[4-(trifluoromethyl)phenyl]azetidine], the IC50 is < 100 nM. In the case of `COc1c(C#N)ccc(O[C@@H](C)C(F)(F)F)c1C(=O)N1CC(c2ncccc2Cl)C1` [Example 38, 3-{[3-(3-Chloropyridin-2-yl)azetidin-1-yl]carbonyl}-2-methoxy-4-{[(2S)-1,1,1-trifluoropropan-2-yl]oxy}benzonitrile] it was < 100 nM; in that of `COc1c(C#N)ccc(C2(F)CCCC2)c1C(=O)N1CC(c2ccc(C(F)(F)F)cn2)C1` [Example 193, 4-(1-Fluorocyclopentyl)-2-methoxy-3-{3-[5-(trifluoromethyl)pyridin-2-yl]azetidine-1-carbonyl}benzonitrile], < 100 nM.

Regarding `COc1c(C#N)ccc(O[C@@H](C)C(F)(F)F)c1C(=O)N1CC(c2ncc(C(F)(F)F)cc2F)C1` [Example 5, (S)-3-(3-(3-Fluoro-5-(trifluoromethyl)pyridin-2-yl)azetidine-1-carbonyl)-2-methoxy-4-((1,1,1-trifluoropropan-2-yl)oxy)benzonitrile], the IC50 was 100 to 1000 nM. `COc1c(C#N)ccc(O[C@H](C)C(F)(F)F)c1C(=O)N1CC(c2ccc(C3CCC(F)(F)CC3)cn2)C1` [Example 172, 3-{3-[5-(4,4-Difluorocyclohexyl)pyridin-2-yl]azetidine-1-carbonyl}-2-methoxy-4-{[(2R)-1,1,1-trifluoropropan-2-yl]oxy}benzonitrile]: the IC50 was < 100 nM. As for `COc1c(S(C)(=O)=O)ccc(O[C@@H](C)C(F)(F)F)c1C(=O)N1CC(c2cc(F)cc(F)c2F)C1` [Example 156, 1-(3-Methanesulfonyl-2-methoxy-6-{[(2S)-1,1,1-trifluoropropan-2-yl]oxy}benzoyl)-3-(2,3,5-trifluorophenyl)azetidine], the IC50 was < 100 nM.

Take `COc1c(S(C)(=O)=O)ccc(O[C@@H](C)C(F)(F)F)c1C(=O)N1CC(c2ccc(F)c(F)c2F)C1` [Example 155, 1-(3-Methanesulfonyl-2-methoxy-6-{[(2S)-1,1,1-trifluoropropan-2-yl]oxy}benzoyl)-3-(2,3,4-trifluorophenyl)azetidine]: the IC50 was < 100 nM. With `COc1c(C#N)ccc(C2CC(F)(F)C2)c1C(=O)N1CC(c2ccc(C(F)(F)F)cn2)C1` [Example 151, 4-(3,3-Difluorocyclobutyl)-2-methoxy-3-{3-[5-(trifluoromethyl)pyridin-2-yl]azetidine-1-carbonyl}benzonitrile], the IC50 was 100 to 1000 nM. With `COc1c(S(C)(=O)=O)ccc(OCC(F)(F)F)c1C(=O)N1CC(c2ccc(F)c(F)c2)C1` [Example 228, 3-(3,4-Difluorophenyl)-1-[3-methanesulfonyl-2-methoxy-6-(2,2,2-trifluoroethoxy)benzoyl]azetidine], the IC50 is 100 to 1000 nM. Regarding `COc1c(C#N)ccc(C2(F)CCOCC2)c1C(=O)N1CC(Oc2ccc(F)cc2)C1` [Example 26, 4-(4-Fluorooxan-4-yl)-3-{[3-(4-fluorophenoxy)azetidin-1-yl]carbonyl}-2-methoxybenzonitrile], the IC50 was 1000 to 10000 nM. For `COc1c(C#N)ccc(O[C@@H](C)C(F)(F)F)c1C(=O)N1CC(Cc2ccc(F)cc2)C1` [Example 37, 3-({3-[(4-Fluorophenyl)methyl]azetidin-1-yl}carbonyl)-2-methoxy-4-{[(2S)-1,1,1-trifluoropropan-2-yl]oxy}benzonitrile], the IC50 is 1000 to 10000 nM. Consider `COc1c(S(C)(=O)=O)ccc(O[C@@H](C)C(F)(F)F)c1C(=O)N1CC(c2cc(F)c(F)c(F)c2)C1` [Example 150, 1-(3-Methanesulfonyl-2-methoxy-6-{[(2S)-1,1,1-trifluoropropan-2-yl]oxy}benzoyl)-3-(3,4,5-trifluorophenyl)azetidine], for which the IC50 is < 100 nM. In the case of `COc1c(S(C)(=O)=O)ccc(O[C@@H](C)C(F)(F)F)c1C(=O)N1CC(Oc2ccc(F)cc2)C1` [Example 192, 3-(4-Fluorophenoxy)-1-(3-methanesulfonyl-2-methoxy-6-{[(2S)-1,1,1-trifluoropropan-2-yl]oxy}benzoyl)azetidine] it was < 100 nM. In the case of `COc1c(S(C)(=O)=O)ccc(O[C@H](C)C(F)(F)F)c1C(=O)N1CC(c2ccc(C(F)(F)F)cc2F)C1` [Example 138, 3-[2-Fluoro-4-(trifluoromethyl)phenyl]-1-(3-methanesulfonyl-2-methoxy-6-{[(2R)-1,1,1-trifluoropropan-2-yl]oxy}benzoyl)azetidine] it was 100 to 1000 nM. For `COc1c(S(C)(=O)=O)ccc(OCC(C)(C)C)c1C(=O)N1CC(Oc2c(F)cc(F)cc2F)C1` [Example 240, 1-[6-(2,2-Dimethylpropoxy)-3-methanesulfonyl-2-methoxybenzoyl]-3-(2,4,6-trifluorophenoxy)azetidine], the IC50 is 100 to 1000 nM. Regarding `COc1c(C#N)ccc(C2(F)CCC2)c1C(=O)N1CC(c2ccc(C(F)(F)F)cc2)C1` [Example 3, 4-(1-Fluorocyclobutyl)-2-methoxy-3-({3-[4-(trifluoromethyl)phenyl]azetidin-1-yl}carbonyl)benzonitrile], the IC50 is < 100 nM.

As for `COc1c(S(C)(=O)=O)ccc(OC(C)C)c1C(=O)N1CC(c2ncc(C(F)(F)F)cc2Cl)C1` [Example 214, 3-Chloro-2-{1-[3-methanesulfonyl-2-methoxy-6-(propan-2-yloxy)benzoyl]azetidin-3-yl}-5-(trifluoromethyl)pyridine], the IC50 is < 100 nM.
